From publication PMC11973503 (2024)

Key:
[1] = tested on: Poly rA ⋅ Poly rU (RNA, polymer) A/U; assay: thermal melting; conditions: 100 mM KCl; 10 mM HEPES, 0.4 mM EDTA; 5 μM duplex, ligand 1:10 per base pair; Tm without ligand 58±0.4
[2] = tested on: Seq 5 dsDNA (DNA, duplex) GCGCCCGC/GCGGGCGC; assay: thermal melting; conditions: 100 mM KCl; 10 mM HEPES, 0.4 mM EDTA; 5 μM duplex, ligand 1:10 per base pair; Tm without ligand 54±0.7
[3] = tested on: Seq 6 dsDNA (DNA, duplex) CTTCGATAGTG/CACTATCGAAG; assay: thermal melting; conditions: 100 mM KCl; 10 mM HEPES, 0.4 mM EDTA; 5 μM duplex, ligand 1:10 per base pair; Tm without ligand 45±1.1
[4] = tested on: Poly dA ⋅ Poly dT (DNA, polymer) A/T; assay: thermal melting; conditions: 100 mM KCl; 10 mM HEPES, 0.4 mM EDTA; 5 μM duplex, ligand 1:10 per base pair; Tm without ligand 72±1.0
[5] = tested on: HTG DNA (DNA, G4) AGGGTTAGGGTTAGGGTTAGGG; assay: thermal melting; conditions: 100 mM KCl; 10 mM HEPES, 0.4 mM EDTA; ligand to HTG 2.2:1; Tm without ligand 57±1.9
[6] = tested on: Seq 6 dsDNA (5'-CTTCGATAGTG) (DNA, duplex) CTTCGATAGTG/CACTATCGAAG; assay: fluorescence quantum yield titration; conditions: 100 mM KCl; 10 mM HEPES pH 7, 0.4 mM EDTA, 25 °C
[7] = tested on: Seq 5 dsDNA (5'-GCGCCCGC) (DNA, duplex) GCGCCCGC/GCGGGCGC; assay: thermal melting; conditions: 100 mM KCl; 10 mM HEPES pH not given, 0.4 mM EDTA; 5 µM duplex; ligand 1:10 per base pair
[8] = tested on: Seq 5 dsRNA (RNA, duplex) GCGCCCGC/GCGGGCGC; assay: thermal melting; conditions: 100 mM KCl; 10 mM HEPES pH not given, 0.4 mM EDTA; 5 µM duplex; ligand 1:10 per base pair
[9] = tested on: Seq 6 dsDNA (5'-CTTCGATAGTG) (DNA, duplex) CTTCGATAGTG/CACTATCGAAG; assay: thermal melting; conditions: 100 mM KCl; derived from two Tm; 10 mM HEPES, 0.4 mM EDTA; ligand 1:10 per base pair
[10] = tested on: HTG DNA (human telomeric G-quadruplex), d[AG3(T2AG3)3] (DNA, G4) AGGGTTAGGGTTAGGGTTAGGG; assay: thermal melting; conditions: 100 mM KCl; derived from two Tm; 10 mM HEPES, 0.4 mM EDTA; 5 µM DNA; ligand to HTG 2.2:1
[11] = tested on: Poly rA ⋅ Poly rU (RNA, polymer) A/U; assay: thermal melting; conditions: 100 mM KCl, derived from two Tm, 10 mM HEPES, 0.4 mM EDTA, ligand 1:10 per base pair
[12] = tested on: Poly dA ⋅ Poly dT (DNA, polymer) A/T; assay: thermal melting; conditions: 100 mM KCl, derived from two Tm, 10 mM HEPES, 0.4 mM EDTA, ligand 1:10 per base pair
[13] = tested on: Seq 1 (GGGGCCCC)2 (DNA, duplex) GGGGCCCC; assay: fluorescence increase (ΔF), plate reader; conditions: 50 mM NaCl; 10 mM sodium cacodylate, 0.5 mM EDTA, pH 6.0; 1 µM duplex, 1:1 ligand
[14] = tested on: Seq 2 (CCCCGGGG)2 (DNA, duplex) CCCCGGGG; assay: fluorescence increase (ΔF), plate reader; conditions: 50 mM NaCl; 10 mM sodium cacodylate, 0.5 mM EDTA, pH 6.0; 1 µM duplex, 1:1 ligand
[15] = tested on: Seq 3 (GGGGCGGG)2 (DNA, duplex) GGGGCGGG/CCCGCCCC; assay: fluorescence increase (ΔF), plate reader; conditions: 50 mM NaCl; 10 mM sodium cacodylate, 0.5 mM EDTA, pH 6.0; 1 µM duplex, 1:1 ligand
[16] = tested on: Seq 4 (GCGGGGGC)2 (DNA, duplex) GCGGGGGC/GCCCCCGC; assay: fluorescence increase (ΔF), plate reader; conditions: 50 mM NaCl; 10 mM sodium cacodylate, 0.5 mM EDTA, pH 6.0; 1 µM duplex, 1:1 ligand

| Tm [1] [°C] | Tm [2] [°C] | Tm [3] [°C] | Tm [4] [°C] | Tm [5] [°C] | binding [6] | Tm increase [7] [°C] | Tm increase [8] [°C] | ΔTm [9] [°C] | ΔTm [10] [°C] | ΔTm [11] [°C] | ΔTm [12] [°C] | binding [13] | binding [14] | binding [15] | binding [16] | Compound |
| --- | --- | --- | --- | --- | --- | --- | --- | --- | --- | --- | --- | --- | --- | --- | --- | --- |
| 58±1.1 | 54±1.6 | 52±1.0 | 73±0.3 | 61±1.2 | yes | – | – | – | – | – | – | – | – | – | – | CN1C(=Cc2cc[n+](C)c3ccccc23)Sc2ccccc21 |
| – | – | – | – | – | – | 10.8 | 11 | 13 | 10 | 21 | 1 | yes | yes | yes | yes | CN1C(=Cc2cc[n+](CCCCC(=O)NCCSC[C@H]3O[C@@H](O[C@@H]4[C@@H](O)[C@H](N)C[C@H](N)[C@H]4O[C@H]4O[C@H](CN)[C@@H](O)[C@H](O)[C@H]4N)[C@H](O)[C@@H]3O[C@H]3O[C@@H](CN)[C@@H](O)[C@H](O)[C@H]3N)c3ccccc23)Sc2ccccc21 |
| – | – | – | – | – | – | 13.8 | 9.7 | 9 | 8 | 13 | 0 | yes | yes | yes | yes | CN1C(=Cc2cc[n+](CCCCC(=O)NC[C@H]3O[C@@H](O[C@@H]4[C@@H](O)[C@H](N)C[C@H](N)[C@H]4O[C@H]4O[C@H](CN)[C@@H](O)[C@H](O)[C@H]4N)[C@H](O)[C@@H]3O[C@H]3O[C@@H](CN)[C@@H](O)[C@H](O)[C@H]3N)c3ccccc23)Sc2ccccc21 |
